Results: US12570666B2, “Furoindazole derivatives” (Bayer Aktiengesellschaft, priority 2019, dated 2026)

Target: T1, human GPR84 receptor (Homo sapiens, UniProt Q9NQS5)
T1 construct: frozen aliquots prepared by acCELLerate; host or cells: CHO-K1
Test: cAMP HTRF assay for identification of cellular GPR84 antagonists
Type: cell-based
Conditions: CHO-K1 cells stably expressing human GPR84; Forskolin + agonist 6-OAU (EC80); average or median values
Method in brief: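 Forskolin-stimulated CHO-K1 cells stably expressing human GPR84, agonist-suppressed cAMP measured by HTRF (665/620 ratio) after lysis. Compounds at 11 concentrations, 20 μM to 0.07 nM, duplicate; normalized to DMSO and no-agonist controls; IC50 by 4-parameter fit.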

T1 sequence (Q9NQS5 whole entry): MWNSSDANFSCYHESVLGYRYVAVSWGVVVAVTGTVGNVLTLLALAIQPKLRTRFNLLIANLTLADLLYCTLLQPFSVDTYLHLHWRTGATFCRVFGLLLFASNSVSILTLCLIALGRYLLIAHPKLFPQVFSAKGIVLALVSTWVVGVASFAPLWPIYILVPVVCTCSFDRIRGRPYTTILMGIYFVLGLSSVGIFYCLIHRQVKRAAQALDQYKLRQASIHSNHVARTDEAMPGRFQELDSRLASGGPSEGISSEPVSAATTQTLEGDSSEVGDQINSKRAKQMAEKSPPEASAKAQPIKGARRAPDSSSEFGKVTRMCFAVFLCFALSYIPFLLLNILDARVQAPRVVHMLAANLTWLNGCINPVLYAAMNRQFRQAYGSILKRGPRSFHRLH

IC50 [nM]	Compound
9	O=C(NC[C@@H]1CCCO1)c1oc2c(c1C(F)(F)F)-c1nn(Cc3ccccn3)cc1C1(CC1)C2 [Example 218, N-{[(2S)-oxolan-2-yl]methyl}-2′-[(pyridin-2-yl)methyl]-8′-(trifluoromethyl)-2′,5′-dihydrospiro[cyclopropane-1,4′-furo[2,3-g]indazole]-7′-carboxamide]
700	Cc1c(C(=O)NC[C@@H]2CCCO2)oc2c1-c1nn(CCN3CCN(C(=O)OC(C)(C)C)CC3)cc1CC2 [Example 141, tert-butyl 4-[2-(8-methyl-7-{[(2S)-tetrahydrofuran-2-ylmethyl]carbamoyl}-4,5-dihydro-2H-furo[2,3-g]indazol-2-yl)ethyl]piperazine-1-carboxylate]
770	Cc1c(C(=O)NCC2CCO2)oc2c1-c1nn(Cc3ccccn3)cc1CC2 (single isomer, unassigned) [Example 35-2]
25	[2H]C([2H])(c1ccccc1)n1cc2c(n1)-c1c(oc(C(=O)NC[C@@H]3COCCO3)c1C)CC2 [Example 136, N-[(2R)-1,4-dioxan-2-ylmethyl]-8-methyl-2-[phenyl(^2H2)methyl]-4,5-dihydro-2H-furo[2,3-g]indazole-7-carboxamide]
10100	Cc1c(C(=O)NCc2cc(-c3ccccc3Cl)on2)oc2c1-c1nn(Cc3ccccn3)cc1CC2 [Example 17, N-{[5-(2-chlorophenyl)-1,2-oxazol-3-yl]methyl}-8-methyl-2-(pyridin-2-ylmethyl)-4,5-dihydro-2H-furo[2,3-g]indazole-7-carboxamide]
53	Cc1ccc(Cn2cc3c(n2)-c2c(oc(C(=O)NCc4ccn(C)n4)c2C(F)(F)F)CC32CCC2)nc1 [Example 279, N-[(1-Methyl-1H-pyrazol-3-yl)methyl]-2′-[(5-methylpyridin-2-yl)methyl]-8′-(trifluormethyl)-2′,5′-dihydrospiro[cyclobutan-1,4′-furo[2,3-g]indazol]-7′-carboxamide]
43	Cc1c(C(=O)NCc2ccon2)oc2c1-c1nn(CC3COc4ncccc4O3)cc1CC2 (single isomer, unassigned) [Example 55-2]
1210	Cc1c(C(=O)NC[C@@H]2COCCO2)oc2c1-c1nn(C[C@H]3COCCO3)cc1[C@H](C(F)(F)F)C2 (single isomer, unassigned) [Example 265-2, (4R or 4S)-N-{(2R)-1 ,4-dioxan-2-yl]methyl}-2-{[(2S)-1,4-dioxan-2-yl]methyl}-8-methyl-4-(trifluoromethyl)-4,5-dihydro-2H-furo[2,3-g]indazole-7-carboxamide]
168	Cc1c(C(=O)NC[C@@H]2CCCO2)oc2c1-c1nn(Cc3cc(F)ccn3)cc1CC2 [Example 182]
180	Cc1c(C(=O)NC[C@@H]2COCCO2)oc2c1-c1nn(Cc3ncccn3)cc1CC2 [Example 84, N-[(2R)-1,4-dioxan-2-ylmethyl]-8-methyl-2-(pyrimidin-2-ylmethyl)-4,5-dihydro-2H-furo[2,3-g]indazole-7-carboxamide]
49	Cc1c(C(=O)NCc2ccon2)oc2c1-c1nn(CC3COc4ncccc4O3)cc1CC2 (racemic) [Example 55, 2-[(2R/S)-2,3-dihydro[1,4]dioxino[2,3-b]pyridin-2-ylmethyl]-8-methyl-N-(1,2-oxazol-3-ylmethyl)-4,5-dihydro-2H-furo[2,3-g]indazole-7-carboxamide]
27	O=C(NC[C@@H]1COCCO1)c1oc2c(c1C(F)(F)F)-c1nn(C[C@H]3COCCO3)cc1C1(CCC1)C2 [Example 269, N-[(2R)-1,4-dioxan-2-ylmethyl]-2′-[(2S)-1,4-dioxan-2-ylmethyl]-8′-(trifluormethyl)-2′,5′-dihydrospiro[cyclobutan-1,4′-furo[2,3-g]indazol]-7′-carboxamide]
97	Cc1c(C(=O)NC[C@@H]2CCCO2)oc2c1-c1nn(CC3CC3)cc1CC2 [Example 48, 2-(cyclopropylmethyl)-8-methyl-N-[(2S)-tetrahydrofuran-2-ylmethyl]-4,5-dihydro-2H-furo[2,3-g]indazole-7-carboxamide]
11100	Cc1c(C(=O)Nc2ccc(C#N)cc2)oc2c1-c1nn(Cc3ccccn3)cc1CC2 [Example 43, N-(4-cyanophenyl)-8-methyl-2-(pyridin-2-ylmethyl)-4,5-dihydro-2H-furo[2,3-g]indazole-7-carboxamide]
80	Cc1c(C(=O)NCC2CCC3(COC3)O2)oc2c1-c1nn(C[C@H]3COCCO3)cc1C1(CC1)C2 (mixture of isomers) [Example 201]
26	[2H]C([2H])(c1ccccc1)n1cc2c(n1)-c1c(oc(C(=O)NC[C@@H]3CCCO3)c1C)CC2 [Example 135, 8-methyl-2-[phenyl(^2H2)methyl]-N-[(2S)-tetrahydrofuran-2-ylmethyl]-4,5-dihydro-2H-furo[2,3-g]indazole-7-carboxamide]
3	C[C@@H]1Cc2oc(C(=O)NC[C@@H]3CCCO3)c(C(F)(F)F)c2-c2nn(C[C@H]3COCCO3)cc21 (single isomer, unassigned) [Example 255-1, (4R or 4S)-2-{[(2S)-1,4-dioxan-2-yl]methyl}-4-methyl-N-{[(2S)-oxolan-2-yl]methyl}-8-(trifluoromethyl)-4,5-dihydro-2H-furo[2,3-g]indazole-7-carboxamide]

IC50 [nM]	Compound
1120	O=C(NCCc1ccccn1)c1oc2c(c1C(F)(F)F)-c1nn(C[C@H]3COCCO3)cc1CC2 [Example 233, 2-[(2S)-1,4-Dioxan-2-ylmethyl]-N-[2-(pyridin-2-yl)ethyl]-8-(trifluormethyl)-4,5-dihydro-2H-furo[2,3-g]indazol-7-carboxamide]
238	Cc1c(C(=O)NC[C@@H]2CCCO2)oc2c1-c1nn(CC3CCCCO3)cc1CC2 (mixture of isomers) [Example 190]
32	Cc1ccc(CNC(=O)c2oc3c(c2C)-c2nn(CC4COc5ncccc5O4)cc2CC3)cc1 (stereo not shown) [Example 53]
500	Cc1cccc(CNC(=O)c2oc3c(c2C(F)(F)F)-c2nn(C[C@H]4COCCO4)cc2CC3)n1 [Example 238, 2-[(2S)-1,4-Dioxan-2-ylmethyl]-N-[(6-methylpyridin-2-yl)methyl]-8-(trifluormethyl)-4,5-dihydro-2H-furo[2,3-g]indazol-7-carboxamide]
92	Cc1c(C(=O)NCC2CC3(CC3)CO2)oc2c1-c1nn(Cc3ccccn3)cc1CC2 (racemic) [Example 178]
13	O=C(NC[C@@H]1COCCO1)c1oc2c(c1C(F)(F)F)-c1nn(C[C@H]3COCCO3)cc1C1(CC1)C2 [Example 169, N-{[(2R)-1,4-dioxan-2-yl]methyl}-2′-{[(2S)-1,4-dioxan-2-yl]methyl}-8′-(trifluoromethyl)-2′,5′-dihydrospiro[cyclopropane-1,4′-furo[2,3-g]indazole]-7′-carboxamide]
24	C[C@@H]1Cc2oc(C(=O)NC[C@@H]3COCCO3)c(C(F)(F)F)c2-c2nn(CC3CCN(C(=O)C4(C)CC4)CC3)cc21 (single isomer, unassigned) [Example 299, (4R or 4S)-N-{[(2R)-1,4-dioxan-2-yl]methyl}-4-methyl-2-{[1-(1-methylcyclopropane-1-carbonyl)piperidin-4-yl]methyl}-8-(trifluoromethyl)-4,5-dihydro-2H-furo[2,3-g]indazole-7-carboxamide]
101	O=C(NC[C@@H]1CCCO1)c1oc2c(c1C(F)(F)F)-c1nn(CC3CCN(C(=O)c4ccccc4)CC3)cc1CC2 [Example 288, 2-[(1-benzoylpiperidin-4-yl)methyl]-N-{[(2S)-oxolan-2-yl]methyl}-8-(trifluoromethyl)-4,5-dihydro-2H-furo[2,3-g]indazole-7-carboxamide]
40	Cc1c(C(=O)NC[C@@H]2CCCO2)oc2c1-c1nn(C[C@H]3COCCO3)cc1CC2 [Example 89, 2-[(2S)-1,4-dioxan-2-ylmethyl]-8-methyl-N-[(2S)-tetrahydrofuran-2-ylmethyl]-4,5-dihydro-2H-furo[2,3-g]indazole-7-carboxamide]
63	CCc1ccc(Cn2cc3c(n2)-c2c(oc(C(=O)NC[C@@H]4CCCO4)c2C)CC3)cn1 [Example 186]
670	Cc1c(C(=O)NCC2CCC(=O)O2)oc2c1-c1nn(Cc3ccccn3)cc1CC2 (single isomer, unassigned) [Example 39-1]
35	Cc1c(C(=O)NC[C@@H]2CCCO2)oc2c1-c1nn(C[C@@H]3CCCO3)cc1CC2 [Example 107, 8-methyl-N,2-bis[(2S)-tetrahydrofuran-2-ylmethyl]-4,5-dihydro-2H-furo[2,3-g]indazole-7-carboxamide]
63	C[C@@H]1Cc2oc(C(=O)NCc3cocn3)c(C(F)(F)F)c2-c2nn(C[C@H]3COCCO3)cc21 (single isomer, unassigned) [Example 261, (4R or 4S)-2-{[(2S)-1,4-dioxan-2-yl]methyl}-4-methyl-N-[(1,3-oxazol-4-yl)methyl]-8-(trifluoromethyl)-4,5-dihydro-2H-furo[2,3-g]indazole-7-carboxamide]
1540	Cc1c(C(=O)NC[C@@H]2CCCO2)oc2c1-c1nn(C[C@H]3CN(C)CCO3)cc1CC2 [Example 101, 8-methyl-2-{[(2R)-4-methylmorpholin-2-yl]methyl}-N-[(2S)-tetrahydrofuran-2-ylmethyl]-4,5-dihydro-2H-furo[2,3-g]indazole-7-carboxamide]
112	Cc1c(C(=O)NC[C@H]2CCC3(COC3)O2)oc2c1-c1nn(C[C@H]3COCCO3)cc1C1(CC1)C2 (single isomer, unassigned) [Example 201-2]
28	Cc1ccc(Cn2cc3c(n2)-c2c(oc(C(=O)NC[C@@H]4CCCO4)c2C)CC3)nc1 [Example 64, 8-methyl-2-[(5-methylpyridin-2-yl)methyl]-N-[(2S)-tetrahydrofuran-2-ylmethyl]-4,5-dihydro-2H-furo[2,3-g]indazole-7-carboxamide]
180	Cc1c(C(=O)NC[C@@H]2COCCO2)oc2c1-c1nn(Cc3cncnc3)cc1CC2 [Example 86, N-[(2R)-1,4-dioxan-2-ylmethyl]-8-methyl-2-(pyrimidin-5-ylmethyl)-4,5-dihydro-2H-furo[2,3-g]indazole-7-carboxamide]
